The source of these data is US7037928B2, “Compositions of N-(methylethylaminocarbonyl)-4-(-3-methylphenylamino)-3-pyridylsulfonamide and cyclic oligosaccharides” (PLIVA, farmaceutska industrija, dionicko drustvo, priority 2000, dated 2006).

The nature of the data set: Release of torasemide (active substance) in water, USP 24. Conditions: 37° C., 50 rpm, 1000 ml. In kind it is physicochemical. Here is the method: The physical mixture of the modification I of torasemide and β-cyclodextrin prepared according to the Example 1 of the present invention was subjected to testing the release of the active substance in water at the temperature of 37° C.
The inclusion complex of the modification I of torasemide and β-cyclodextrin to the Example 3 of the present invention was subjected to testing the release of the active substance in water at the temperature of 37° C.

In the case of `Cc1cccc(Nc2ccncc2S(=O)(=O)NC(=O)NC(C)C)c1` [Modification I of torasemide, N-(1-methylethylaminocarbonyl)-4-(3-methylphenylamino)-3-pyridylsulfonamide], the “Released torasemide (%)” value reads like this: (time 0 min) 0%; (time 15 min) 0.7%; (time 30 min) 20.3%; (time 45 min) 38.5%; (time 60 min) 51.8%; (time 90 min) 68.5%. Moreover, for the setting “time 120 min”, the “Released torasemide (%)” value worked out at 78.7%.
